The values below are quoted from earlier work in publication PMC8728392, “Synthesis, Anticancer Assessment, and Molecular Docking of Novel Chalcone-Thienopyrimidine Derivatives in HepG2 and MCF-7 Cell Lines” (Oxidative Medicine and Cellular Longevity, 2021).

SMILES strings stand for the structures.

In series [1] the test system is Bcl-2 26me. Set-up: method as in PMID 19027294. The following applies: cited from earlier work.
The subject of series [2] is Bcl-2 16me. More on the design: method as in PMID 19027294. The following applies: cited from earlier work.

On to `Cc1c(Cl)c(C(=O)N(c2ccccc2)c2ccccc2)nn1-c1ccccc1C(=O)N1Cc2ccccc2CC1CN` (centres unmarked) [DRO], for which the IC50 in series [1] was 100 nM; in series [2] it was 30 nM.
